The numbers were not newly measured in patent US20150105473A1, “AN ANTIBACTERIAL COMPOSITION WITH LOW AMOUNTS OF SURFACTANT AND ANTIBACTERIAL ACTIVES” (The Dial Corporation, priority 2013, published 2015), which cites them from elsewhere.

With `Oc1cc(Cl)ccc1Oc1ccc(Cl)cc1Cl` [triclosan], the solubility in water entry was “poor solubility in water”.
